This is an account of results in patent US10774083B2, “Heterocyclic amide compound” (TAKEDA PHARMACEUTICAL COMPANY LIMITED, priority 2016, dated 2020).

Assay [1] has as its target T1, human PRS protein (His-Avi-hEPRS (998-1512)) (Homo sapiens, UniProt P07814).
T1 construct: to construct His-Avi-hEPRS (998-1512) expression plasmid; His tag (N); Avi tag (N); TEV cleavage site (ENLYFQG, then S; inferred from the forward primer hEPRS-TEV-NheF) (N); made in house; host or cells: E. coli BL21(DE3)
T1 sequence (P07814 998-1512 limits assumed): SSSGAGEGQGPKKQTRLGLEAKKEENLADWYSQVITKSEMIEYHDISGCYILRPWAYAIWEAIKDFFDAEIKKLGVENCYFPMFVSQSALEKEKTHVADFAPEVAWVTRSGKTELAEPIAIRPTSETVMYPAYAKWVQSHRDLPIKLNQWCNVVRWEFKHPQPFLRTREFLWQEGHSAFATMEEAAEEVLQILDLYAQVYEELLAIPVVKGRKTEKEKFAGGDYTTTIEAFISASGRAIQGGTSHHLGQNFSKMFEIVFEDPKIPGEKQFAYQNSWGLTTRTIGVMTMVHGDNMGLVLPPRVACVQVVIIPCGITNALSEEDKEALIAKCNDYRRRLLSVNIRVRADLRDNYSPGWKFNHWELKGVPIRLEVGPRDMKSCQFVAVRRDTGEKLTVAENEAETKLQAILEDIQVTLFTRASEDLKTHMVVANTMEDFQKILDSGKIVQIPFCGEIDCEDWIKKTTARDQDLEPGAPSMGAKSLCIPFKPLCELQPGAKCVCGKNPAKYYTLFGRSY
The assay can be described thus: PRS inhibitory activity ([32P]pyrophosphate exchange enzyme assay). The assay is classed as biochemical. The settings on record: 300 nM test compound; read-out: inhibitory rate (%) of PRS. Summed up:
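Compound was pre-incubated 60 min with 40 nM His-Avi-hEPRS (998-1512) (stock, E. coli-expressed) in Tris pH 7.5/KCl/DTT/Tween/MgCl2. Reaction began with substrate mix containing 300 μM ATP, 160 μM L-proline, 400 μM [32P]pyrophosphate (stock levels) and ran 30 min at room temperature. Charcoal-bound radioactivity was counted; inhibition was relative to no-reaction control.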

Assay [2] has as its system human ovarian cancer cells A2780. The assay can be described thus: proliferation inhibitory activity against human ovarian cancer cell A2780 (CellTiter-Glo). The assay is classed as cell-based. The settings on record: A2780, 72 h, 1 μM test compound, 3 days of culture, read-out: proliferation inhibitory rate (%) of A2780 cells. Summed up:
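A2780 cells in RPMI-1640 with 10% FBS, compound added the day after seeding and cultured 3 days. Viability by CellTiter-Glo luminescence. Inhibition (%) calculated with cell-free wells as 100% inhibition.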
Background: ATP-based viability assays read luminescence as a measure of living cells.

The subject of assay [3] is human fibrosarcoma cell line HT-1080. The assay can be described thus: antitumor action on mice transplanted with human fibrosarcoma cell line HT-1080. It is filed as in vivo, mouse. The conditions noted are these: HT-1080, 10 mg/kg orally, once per day, 11 days. The procedure: An antitumor action of the compound of the present invention on mice transplanted with human malignant melanoma cell line SKMEL-2 and human fibrosarcoma cell line HT-1080 was evaluated by the following method.
Human fibrosarcoma cell line HT-1080 was subcutaneously transplanted by injection into 7-week-old BALB/cA Jcl-nu/nu female mouse (CLEA Japan, Inc.) by 7.5×10^6 cells. At 8 days from transplantation, the tumor diameter of the engrafted tumor was measured and the tumor volume was calculated by the following formula. tumor volume=major axis×minor axis×minor axis×(½)
Individuals having a tumor volume of 100 to 300 mm^3 were selected for SKMEL-2, and individuals having a tumor volume of 200 to 400 mm^3 were selected for HT-1080, and 4 or 5 mice per group were used for the experiment. A 0.5% methylcellulose suspension of the test compound was orally administered to the mice at the dose (dose per administration), administration frequency and dosing period shown in Table 3. The tumor diameter was measured one day before the start of administration and one day after completion of administration and the tumor volume was calculated.
The tumor proliferation rate (T/C (%)) of the test compound administration group in comparison with the control administration group was calculated by the following formula. […]

The structures appear in SMILES notation.

On to `CC(c1nc2ncnc(C(=O)NCc3cc(F)cc(-c4cnn(C)c4)c3)c2[nH]1)C1CC1` (centres unmarked) [Example 45, 8-(1-cyclopropylethyl)-N-(3-fluoro-5-(1-methyl-1H-pyrazol-4-yl)benzyl)-7H-purine-6-carboxamide], for which the inhibition at 0.3 µM in assay [1] came out at 101%. Besides, the inhibition at 1 µM in assay [2] is 99%.
As to `Cn1cc(-c2cc(F)cc(CNC(=O)c3ncnc4nc(C5COCCO5)[nH]c34)c2)cn1` (centres unmarked) [Example 32, 8-(1,4-dioxan-2-yl)-N-(3-fluoro-5-(1-methyl-1H-pyrazol-4-yl)benzyl)-7H-purine-6-carboxamide], the inhibition at 0.3 µM in assay [1] came to 101%. In addition, the inhibition at 1 µM in assay [2] came out at 76%. For the same compound, in assay [3], the “T/C (%) tumor proliferation rate” value is reported as -8.2%.
In the case of `Cc1cc(-c2cc(F)cc(CNC(=O)c3cc(N4CC[C@@](C#N)(C5CC5)C4=O)cc(C)n3)c2)ccn1` [Example 209, 4-((3S)-3-cyano-3-cyclopropyl-2-oxopyrrolidin-1-yl)-N-(3-fluoro-5-(2-methylpyridin-4-yl)benzyl)-6-methylpyridine-2-carboxamide], the inhibition at 0.3 µM in assay [1] is 100%. For the same compound, in assay [2], the inhibition at 1 µM was 80%.
On to `Cn1cc(-c2cc(F)cc(CNC(=O)c3nccc4nc(CC5CC5)[nH]c34)c2)cn1` [Example 126, 2-(cyclopropylmethyl)-N-(3-fluoro-5-(1-methyl-1H-pyrazol-4-yl)benzyl)-3H-imidazo[4,5-c]pyridine-4-carboxamide], for which, in assay [1], the inhibition at 0.3 µM worked out at 98%. For the same compound, the inhibition at 1 µM in assay [2] is 56%.
As for `Cn1cc(-c2cc(F)cc(CNC(=O)c3ncnc4nc(C5CCOC5)[nH]c34)c2)cn1` (centres unmarked) [Example 24, N-(3-fluoro-5-(1-methyl-1H-pyrazol-4-yl)benzyl)-8-(tetrahydrofuran-3-yl)-7H-purine-6-carboxamide], the inhibition at 0.3 µM in assay [1] is 96%. Further, the inhibition at 1 µM in assay [2] is 57%.
The matching figures for `Cn1cc(-c2cc(F)cc(CNC(=O)c3ncnc4nc(C5CCC5)[nH]c34)c2)cn1` [Example 58, 8-cyclobutyl-N-(3-fluoro-5-(1-methyl-1H-pyrazol-4-yl)benzyl)-7H-purine-6-carboxamide]: 99% and 66%.
The matching figures for `Cn1cc(-c2cc(F)cc(CNC(=O)c3ncnc4nc(C5CCCCO5)[nH]c34)c2)cn1` (centres unmarked) [Example 31, N-(3-fluoro-5-(1-methyl-1H-pyrazol-4-yl)benzyl)-8-(tetrahydro-2H-pyran-2-yl)-7H-purine-6-carboxamide]: 102% and 97%.
As for `Cn1cc(-c2cc(F)cc(CNC(=O)c3nccc4nc(C5CCCC5)n(C)c34)c2)ccc1=O` [Example 92, 2-cyclopentyl-N-(3-fluoro-5-(1-methyl-6-oxo-1,6-dihydropyridin-3-yl)benzyl)-3-methyl-3H-imidazo[4,5-c]pyridine-4-carboxamide], the inhibition at 0.3 µM in assay [1] stood at 100%. Further, the inhibition at 1 µM in assay [2] turned out to be 99%.
In the same order, the values of `Cn1cc(-c2cc(F)cc(CNC(=O)c3nccc4nc(C5CCCC5)n(C)c34)c2)cn1` [Example 88, 2-cyclopentyl-N-(3-fluoro-5-(1-methyl-1H-pyrazol-4-yl)benzyl)-3-methyl-3H-imidazo[4,5-c]pyridine-4-carboxamide] are 101% and 99%.
In the same order, the values of `Cn1cc(-c2cc(F)cc(CNC(=O)c3nccc4nc(C5CCOC5)n(C)c34)c2)cn1` (centres unmarked) [Example 117, N-(3-fluoro-5-(1-methyl-1H-pyrazol-4-yl)benzyl)-3-methyl-2-(tetrahydrofuran-3-yl)-3H-imidazo[4,5-c]pyridine-4-carboxamide] are 100% and 78%.
For `O=C(NCc1ccccc1Cl)c1nccc2nc(C3CCCC3)[nH]c12` [Example 81, N-(2-chlorobenzyl)-2-cyclopentyl-3H-imidazo[4,5-c]pyridine-4-carboxamide], the inhibition at 0.3 µM in assay [1] came out at 97%. Also, in assay [2], the inhibition at 1 µM was 56%.
